The target of the assay is T1, human leukocyte elastase enzyme (Homo sapiens, UniProt P08246).
T1 sequence (P08246 30-267): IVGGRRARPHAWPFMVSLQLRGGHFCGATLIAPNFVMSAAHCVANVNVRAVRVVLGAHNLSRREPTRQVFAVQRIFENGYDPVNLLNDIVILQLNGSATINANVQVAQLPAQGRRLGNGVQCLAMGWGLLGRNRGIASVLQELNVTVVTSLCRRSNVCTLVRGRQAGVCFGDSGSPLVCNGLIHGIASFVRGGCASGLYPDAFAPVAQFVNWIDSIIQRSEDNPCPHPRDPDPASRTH
Kind of assay: Inhibition of acute lung damaging effect caused by human leukocyte elastase enzyme, determined on mice (BAL haemoglobin). It is filed as in vivo, mouse. The following applies: for inhibition %: male NMRI mice, p.o. dose 10 mg/bw kg, 60 minutes before intratracheal human leukocyte elastase, haemorrhagic response (BAL haemoglobin, 540 nm) 3 hours later; for ED50: mouse, po, mice, per os, elastase-induced lung haemorrhage. The protocol:
Inhibition of Acut Lung Damaging Effect Caused by Human Leukocyte Elastase Enzyme, Determined on Mice.
Description of the method:
Male NMRI mice approximately 6-8 week old of age, weighing between 22-26 grams were dosed per os with the 0.1% (w/v) solution in carboxymethyl cellulose of the investigated compounds of the general formula (I) or of the known comparatory compound, respectively. 60 minutes later the mice were given intratracheally 12.5 international unit of human leukocyte elastase enzyme dissolved in 25.0 μL sterile physiological sodium chloride solution.
3 hours later the animals were euthanized with an overdose of urethane and into the lung 1 ml of physiological salt solution was introduced, for washing.
The trachea was exposed at wound by opening suture clips and a small incision made for insertion of a polyethylene cannula secured in place with surgical thread. An 18 gauge×1½ inch needle, attached to an 1.00 mL syringe was inserted into the cannula, and 0.5 mL of air was withdrawn from the airways. One milliliter was then instilled into the airways. After it the chest was briefly and gently massaged. The syringe was removed from the cannula and the bronchoalveolar lavage (BAL) fluid allowed to drain into a 10.0 mL graduate to determine the total volume of lavage fluid retrievable from lungs while the animal was in a supine position. The instillation procedure mentioned above was repeated three times. Triton X100 was then added to the collected bronchoalveolar lavage fluid (final concentration, 0.2% v/v) to ensure cell disruption and the haemoglobin content was determined spectrophotometrically at 540 nm.
Effectiveness of the elastase enzyme inhibitory compound was determined on the basis of the haemorrhagic responses, according to the following formula:
% inhibition=[(VE−DE)/(VE−VS)]×100,
VE=mean absorbance of BAL fluids from the group pretreated orally only with vehicle but intratracheally with elastase;
DE=absorbance of each BAL fluid from animals pretreated orally with potential inhibitor compound, intratracheally with elastase;
VS=mean absorbance of BAL fluids from group pretreated orally with vehicle and intratracheally with sterile physiological salt solution.
For comparative compound the structurally most related known compound described in patent application EP-0626378A1 example 9E was used. Its synthesis is described above in the reference example.

Our source for the inhibition % and ED50 values is US20030114449A1, “SACCHARIN DERIVATIVES AS ORALLY ACTIVE ELASTASE INHIBITORS” (priority 1999, published 2003).

As a reminder, the ED50 is the dose that gives a 50% effect, or the effect in half of the subjects. A high value points to weaker potency. On to `COc1cc(C(C)C)c2c(c1)S(=O)(=O)N(COc1cc(=O)n3cccc(OCCN4CCCC4)c3n1)C2=O` [EP-626378, Example 9E, 2-(9-(2-pyrrolidino-ethoxy)-4-oxo-4H-pyrido[1,2-a]pyrimidin-2-yl-oxymethyl)-4-isopropyl-6-methoxy-1,2-benzisothiazol-3(2H)one-1,1-dioxide, reference compound], for which the inhibition % is 15% and the 50% effect level (ED50) was put at a dose of 23 mg/kg.

For the compound `COc1cc(C(C)C)c2c(c1)S(=O)(=O)N(COc1cc(=O)n3cccc(OCCN4CCCCC4)c3n1)C2=O` [Example 3, 2(-9-(2-piperidino-ethoxy)-4-oxo-4H-pyrido[1,2-a]pyrimidin-2-yl-oxymethyl)-4-isopropyl-6-methoxy-1,2-benzisothiazol-3(2H)-one-1,1-dioxide], the inhibition % came to 80% and the ED50 came to 2.6 mg/kg.

The compound `COc1cc(C(C)C)c2c(c1)S(=O)(=O)N(COc1cc(=O)n3cccc(OCCN4CCCCC4)c3n1)C2=O.O=C(O)c1ccccc1` [Example 7, 2-(9-(2-piperidino-ethoxy)-4-oxo-4H-pyrido[1,2-a]pyrimidin-2-yl-oxymethyl)-4-isopropyl-6-methoxy-1,2-benzisothiazol-3(2H)-one-1,1-dioxide benzoate salt] displayed an inhibition % of 56%.

Compound `COc1cc(C(C)C)c2c(c1)S(=O)(=O)N(COc1cc(=O)n3cccc(OCCN4CCCCC4)c3n1)C2=O.O=C(O)CC(O)(CC(=O)O)C(=O)O` [Example 8, 2-(9-(2-piperidino-ethoxy)-4-oxo-4H-pyrido[1,2-a]pyrimidin-2-yl-oxymethyl)-4-isopropyl-6-methoxy-1,2-benzisothiazol-3(2H)-one-1,1-dioxide monocitrate salt] registered an inhibition % of 70%.
